System: BJAB cells
Assay: BJAB cell proliferation (Cell Titer Glo)
Assay type: cell-based
Details: Homo sapiens, read-out: EC50
Procedure, shortened: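 EC50 values come from non-linear regression of luminescence (Cell Titer Glo), expressed relative to untreated wells. BJAB cells were incubated roughly 72 h at 37 °C with serial compound dilutions carrying 0.1% final DMSO.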

| Structure (SMILES) | EC50 |
| --- | --- |
| Cc1nn(-c2nc(C3CC3)c(SC(C)C)s2)c(C(=O)O)c1C1CC1 [Compound 172, 4-cyclopropyl-1-(4-cyclopropyl-5-(isopropylthio)thiazol-2-yl)-3-methyl-1H-pyrazole-5-carboxylic Acid] | > 25 µM |
| Cc1nn(-c2nc(-c3ccc(Cl)c(Cl)c3)c(SC(C)C)s2)c(C(=O)O)c1C1CC1 [Compound 173, 4-cyclopropyl-1-(4-(3,4-dichlorophenyl)-5-(isopropylthio)thiazol-2-yl)-3-methyl-1H-pyrazole-5-carboxylic Acid] | 10 to 25 µM |
| Cc1nn(-c2nc(-c3ccc(Cl)c(Cl)c3)c(SC(C)C)s2)c(C(=O)O)c1-c1cc(Cl)cc(OC(C)C)c1 [Compound 174, 4-(3-chloro-5-isopropoxyphenyl)-1-(4-(3,4-dichlorophenyl)-5-(isopropylthio)thiazol-2-yl)-3-methyl-1H-pyrazole-5-carboxylic Acid] | 1 to 5 µM |
| Cc1nn(-c2nc(-c3cccc(Cl)c3)c(SC(C)C)s2)c(C(=O)O)c1-c1cccc(F)c1 [Compound 176, 1-(4-(3-chlorophenyl)-5-(isopropylthio)thiazol-2-yl)-4-(3-fluorophenyl)-3-methyl-1H-pyrazole-5-carboxylic Acid] | 5 to 10 µM |
| Cc1nn(-c2nc(-c3ccc(Cl)cc3)c(SC(C)C)s2)c(C(=O)O)c1-c1cccc(F)c1 [Compound 177, 1-(4-(4-chlorophenyl)-5-(isopropylthio)thiazol-2-yl)-4-(3-fluorophenyl)-3-methyl-1H-pyrazole-5-carboxylic Acid] | < 1 µM |
| Cc1nn(-c2nc(-c3ccc(Cl)cc3Cl)c(SC(C)C)s2)c(C(=O)O)c1-c1cccc(F)c1 [Compound 178, 1-(4-(2,4-dichlorophenyl)-5-(isopropylthio)thiazol-2-yl)-4-(3-fluorophenyl)-3-methyl-1H-pyrazole-5-carboxylic Acid] | 1 to 5 µM |
| Cc1nn(-c2nc(-c3ccc(-c4cccc(F)c4)nc3)c(SC(C)C)s2)c(C(=O)O)c1Br [Compound 179, 4-bromo-1-(4-(6-(3-fluorophenyl)pyridin-3-yl)-5-(isopropylthio)thiazol-2-yl)-3-methyl-1H-pyrazole-5-carboxylic Acid] | 25 to 50 µM |
| Cc1cc(-c2c(C)nn(-c3nc(-c4ccc(Cl)c(Cl)c4)c(SC(C)C)s3)c2C(=O)O)cc(O[C@@H]2CCOC2)n1 [Compound 180, (R)-1-(4-(3,4-dichlorophenyl)-5-(isopropylthio)thiazol-2-yl)-3-methyl-4-(2-methyl-6-((tetrahydrofuran-3-yl)oxy)pyridin-4-yl)-1H-pyrazole-5-carboxylic Acid] | 10 to 25 µM |
| COCCOc1cc(-c2c(C)nn(-c3nc(-c4ccc(Cl)c(Cl)c4)c(SC(C)C)s3)c2C(=O)O)cc(C)n1 [Compound 181, 1-(4-(3,4-dichlorophenyl)-5-(isopropylthio)thiazol-2-yl)-4-(2-(2-methoxyethoxy)-6-methylpyridin-4-yl)-3-methyl-1H-pyrazole-5-carboxylic Acid] | 10 to 25 µM |
| Cc1cc(-c2c(C)nn(-c3nc(-c4ccc(Cl)c(Cl)c4)c(SC(C)C)s3)c2C(=O)O)cc(O[C@H]2CCOC2)n1 [Compound 182, (S)-1-(4-(3,4-dichlorophenyl)-5-(isopropylthio)thiazol-2-yl)-3-methyl-4-(2-methyl-6-((tetrahydrofuran-3-yl)oxy)pyridin-4-yl)-1H-pyrazole-5-carboxylic acid] | 10 to 25 µM |
| Cc1nn(-c2nc(C3=CCCCC3)c(SC(C)C)s2)c(C(=O)O)c1-c1cccc(F)c1 [Compound 183, 1-(4-(cyclohex-1-en-1-yl)-5-(isopropylthio)thiazol-2-yl)-4-(3-fluorophenyl)-3-methyl-1H-pyrazole-5-carboxylic Acid] | 5 to 10 µM |
| Cc1nn(-c2nc(C3=CCCC3)c(SC(C)C)s2)c(C(=O)O)c1-c1cccc(F)c1 [Compound 184, 1-(4-(cyclopent-1-en-1-yl)-5-(isopropylthio)thiazol-2-yl)-4-(3-fluorophenyl)-3-methyl-1H-pyrazole-5-carboxylic acid] | 10 to 25 µM |
| COc1cc(Cl)cc(-c2c(C)nn(-c3nc(-c4ccccc4)c(SC(C)C)s3)c2C(=O)O)c1 [Compound 185, 4-(3-chloro-5-methoxyphenyl)-1-(5-(isopropylthio)-4-phenylthiazol-2-yl)-3-methyl-1H-pyrazole-5-carboxylic Acid] | 10 to 25 µM |
| Cc1nn(-c2nc(-c3ccc(F)cc3)c(SC(C)C)s2)c(C(=O)O)c1-c1cccc(F)c1 [Compound 186, 4-(3-fluorophenyl)-1-(4-(4-fluorophenyl)-5-(isopropylthio)thiazol-2-yl)-3-methyl-1H-pyrazole-5-carboxylic Acid] | 1 to 5 µM |
| COc1ccc(-c2nc(-n3nc(C)c(-c4cccc(F)c4)c3C(=O)O)sc2SC(C)C)cc1 [Compound 187, 4-(3-fluorophenyl)-1-(5-(isopropylthio)-4-(4-methoxyphenyl)thiazol-2-yl)-3-methyl-1H-pyrazole-5-carboxylic Acid] | 10 to 25 µM |
| Cc1nn(-c2nc(-c3ccc(S(C)(=O)=O)cc3)c(SC(C)C)s2)c(C(=O)O)c1-c1cccc(F)c1 [Compound 188, 4-(3-fluorophenyl)-1-(5-(isopropylthio)-4-(4-(methylsulfonyl)phenyl)thiazol-2-yl)-3-methyl-1H-pyrazole-5-carboxylic Acid] | > 40 µM |

| Structure (SMILES) | EC50 |
| --- | --- |
| COc1cc(-c2nc(-n3nc(C)c(-c4cccc(F)c4)c3C(=O)O)sc2SC(C)C)ccc1F [Compound 189, 1-(4-(4-fluoro-3-methoxyphenyl)-5-(isopropylthio)thiazol-2-yl)-4-(3-fluorophenyl)-3-methyl-1H-pyrazole-5-carboxylic Acid] | 10 to 25 µM |
| Cc1cc(-c2c(C)nn(-c3nc(-c4ccc(Cl)c(C)c4)c(SC(C)C)s3)c2C(=O)O)cc(C)n1 [Compound 190, 1-(4-(4-chloro-3-methylphenyl)-5-(isopropylthio)thiazol-2-yl)-4-(2,6-dimethylpyridin-4-yl)-3-methyl-1H-pyrazole-5-carboxylic Acid] | 1 to 5 µM |
| Cc1cc(-c2nc(-n3nc(C)c(-c4cccc(F)c4)c3C(=O)O)sc2SC(C)C)ccc1Cl [Compound 191, 1-(4-(4-chloro-3-methylphenyl)-5-(isopropylthio)thiazol-2-yl)-4-(3-fluorophenyl)-3-methyl-1H-pyrazole-5-carboxylic Acid] | 1 to 5 µM |
| Cc1cc(-c2c(C)nn(-c3nc(-c4cc(F)c(Cl)c(F)c4)c(SC(C)C)s3)c2C(=O)O)cc(C)n1 [Compound 192, 1-(4-(4-chloro-3,5-difluorophenyl)-5-(isopropylthio)thiazol-2-yl)-4-(2,6-dimethylpyridin-4-yl)-3-methyl-1H-pyrazole-5-carboxylic Acid] | 1 to 5 µM |
| Cc1nn(-c2nc(-c3cc(F)c(Cl)c(F)c3)c(SC(C)C)s2)c(C(=O)O)c1-c1cccc(F)c1 [Compound 193, 1-(4-(4-chloro-3,5-difluorophenyl)-5-(isopropylthio)thiazol-2-yl)-4-(3-fluorophenyl)-3-methyl-1H-pyrazole-5-carboxylic Acid] | 1 to 5 µM |
| COc1cc(-c2nc(-n3nc(C)c(-c4cc(C)nc(C)c4)c3C(=O)O)sc2SC(C)C)ccc1Cl [Compound 194, 1-(4-(4-chloro-3-methoxyphenyl)-5-(isopropylthio)thiazol-2-yl)-4-(2,6-dimethylpyridin-4-yl)-3-methyl-1H-pyrazole-5-carboxylic Acid] | 1 to 5 µM |
| COc1cc(-c2nc(-n3nc(C)c(-c4cccc(F)c4)c3C(=O)O)sc2SC(C)C)ccc1Cl [Compound 195, 1-(4-(4-chloro-3-methoxyphenyl)-5-(isopropylthio)thiazol-2-yl)-4-(3-fluorophenyl)-3-methyl-1H-pyrazole-5-carboxylic Acid] | 5 to 10 µM |
| Cc1cc(-c2c(C)nn(-c3nc(-c4ccc(C(F)(F)F)cc4)c(SC(C)C)s3)c2C(=O)O)cc(C)n1 [Compound 196, 4-(2,6-dimethylpyridin-4-yl)-1-(5-(isopropylthio)-4-(4-(trifluoromethyl)phenyl)thiazol-2-yl)-3-methyl-1H-pyrazole-5-carboxylic Acid] | 1 to 5 µM |
| Cc1nn(-c2nc(-c3ccc(C(F)(F)F)cc3)c(SC(C)C)s2)c(C(=O)O)c1-c1cccc(F)c1 [Compound 197, 4-(3-fluorophenyl)-1-(5-(isopropylthio)-4-(4-(trifluoromethyl)phenyl)thiazol-2-yl)-3-methyl-1H-pyrazole-5-carboxylic Acid] | < 1 µM |
| COc1cc(-c2c(C)nn(-c3nc(-c4ccc(Cl)c(Cl)c4)c(SC(C)C)s3)c2C(=O)O)cc(C)n1 [Compound 199, 1-(4-(3,4-dichlorophenyl)-5-(isopropylthio)thiazol-2-yl)-4-(2-methoxy-6-methylpyridin-4-yl)-3-methyl-1H-pyrazole-5-carboxylic Acid] | 1 to 5 µM |
| Cc1nn(-c2nc(-c3ccc(Cl)c(Cl)c3)c(SC(C)C)s2)c(C(=O)O)c1-c1cc(F)cc(OC2COC2)c1 [Compound 200, 1-(4-(3,4-dichlorophenyl)-5-(isopropylthio)thiazol-2-yl)-4-(3-fluoro-5-(oxetan-3-yloxy)phenyl)-3-methyl-1H-pyrazole-5-carboxylic Acid] | 1 to 5 µM |
| Cc1nn(-c2nc(-c3cccc(F)c3)c(SC(C)C)s2)c(C(=O)O)c1-c1cccc(F)c1 [Compound 201a] | 25 to 50 µM |
| Cc1nn(-c2nc(-c3cc4ccccc4o3)c(SC(C)C)s2)c(C(=O)O)c1-c1cccc(F)c1 [Compound 201b] | 10 to 25 µM |
| Cc1nn(-c2nc(-c3ccccc3)c(SC(C)C)s2)c(C(=O)O)c1-c1cccc(F)c1 [Compound 202, 4-(3-fluorophenyl)-1-(5-(isopropylthio)-4-phenylthiazol-2-yl)-3-methyl-1H-pyrazole-5-carboxylic acid] | 10 to 25 µM |
| Cc1nn(-c2nc(-c3ccccc3)c(SC(C)C)s2)c(C(=O)O)c1-c1cnn(C)c1 [Compound 203, 1-(5-(isopropylthio)-4-phenylthiazol-2-yl)-1′,3-dimethyl-1H,1′H-[4,4′-bipyrazole]-5-carboxylic acid] | > 40 µM |
| Cc1cc(-c2c(C)nn(-c3nc(-c4ccc(F)cc4)c(SC(C)C)s3)c2C(=O)O)cc(C)n1 [Compound 204, 4-(2,6-dimethylpyridin-4-yl)-1-(4-(4-fluorophenyl)-5-(isopropylthio)thiazol-2-yl)-3-methyl-1H-pyrazole-5-carboxylic acid] | 1 to 5 µM |

Source: patent US10537558B2 (Bantam Pharmaceutical, LLC, priority 2015, dated 2020)
